Data taken from BigSolDB 2.1.

Cc1cnc(NC(=O)C2=C(O)c3ccccc3S(=O)(=O)N2C)s1
solubility (mole fraction)
Settings	293.15 K	298.15 K	303.15 K	308.15 K	313.15 K
in ethanol	4.47e-05	5.67e-05	7.52e-05	9.37e-05	0.000123
in ethyl acetate	0.000389	0.000453	0.00053	0.000607	0.000707
